Measured values taken from US20260068885A1, “HERBICIDAL COMPOSITIONS” (BAYER AKTIENGESELLSCHAFT, priority 2022, published 2026).

Experiments:
Test in all cases: Post-emergence herbicidal action against harmful plants (greenhouse)
Assay type in all cases: in vivo
Solanum nigrum (SOLNI) = test system: Solanum nigrum (SOLNI)
Protocol: (§1) Seeds of monocotyledonous and dicotyledonous weed and crop plants are laid out in sandy loam soil in wood-fibre pots, covered with soil and cultivated in a greenhouse under good growth conditions. 2 to 3 weeks after sowing, the test plants are treated at the one-leaf stage. The compounds of the invention, formulated in the form of wettable powders (WP) or as emulsion concentrates (EC), are then sprayed onto the green parts of the plants in the form of an aqueous suspension or emulsion at a water application rate equivalent to 600 to 800 l/ha, with addition of 0.2% wetting agent. After the test plants have been […], the action of the preparations is assessed visually in comparison to untreated controls (herbicidal action in percent (%): 100% activity=the plants have died, 0% activity=like control plants). […] The tables below illustrate, in an illustrative manner, the post-emergence herbicidal action of the compounds of the invention, the herbicidal activity being stated in percent.
(§2) In the tables that follow, the abbreviations mean the following: • E: means the synergism value to be expected according to the Colby formula. • Δ SYN: means the difference between the actual and expected synergism value. • DAT: means days after treatment.

Cyperus iria (CYPIR) = test system: Cyperus iria (CYPIR)
Protocol: as §1, §2

[1] = test system: Erigeron bonariensis (ERIBO)
Protocol: as §1, §2

Setaria viridis (SETVI) = test system: Setaria viridis (SETVI)
Protocol: as §1, §2

[2] = test system: Abutilon theophrasti (ABUTH)
Protocol: as §1, §2

[3] = test system: Polygonum convolvulus (POLCO)
[4] = test system: Sorghum halepense (SORHA)
Protocol: (§3) Seeds of monocotyledonous and dicotyledonous weed and crop plants are laid out in sandy loam soil in wood-fibre pots, covered with soil and cultivated in a greenhouse under good growth conditions. 2 to 3 weeks after sowing, the test plants are treated at the one-leaf stage. The compounds of the invention, formulated in the form of wettable powders (WP) or as emulsion concentrates (EC), are then sprayed onto the green parts of the plants in the form of an aqueous suspension or emulsion at a water application rate equivalent to 600 to 800 l/ha, with addition of 0.2% wetting agent. After the test plants have been left to stand in the greenhouse under optimal growth conditions for about 3 weeks, the action of the preparations is assessed visually in comparison to untreated controls (herbicidal action in percent (%): 100% activity=the plants have died, 0% activity=like control plants). […] The tables below illustrate, in an illustrative manner, the post-emergence herbicidal action of the compounds of the invention, the herbicidal activity being stated in percent.
as §2

[5] = test system: Brachiaria platyphylla (BRAPP)
Protocol: as §3, §2

[6] = test system: Pharbitis purpurea (PHBPU)
[7] = test system: Xanthium strumarium (XANST); conditions: for Herbicidal efficacy [%] against XANST 10 DAT: application rate 0.3 g a.i./ha
[8] = test system: Xanthium strumarium (XANST)
Protocol: as §3, §2

Emex australis (EMEAU) = test system: Emex australis (EMEAU)
Protocol: as §3, §2

[9] = test system: Euphorbia heterophylla (EPHHL); conditions: 21 DAT
Protocol: as §3, §2

[10] = application rate 0.025 g a.i./ha
[11] = application rate 0.025 g a.i./ha, 21 DAT
[12] = application rate 0.00625 g a.i./ha

Cc1cccc(C)c1-n1c(=O)c2cc(C(=O)C3C(=O)CCCC3=O)ccc2n(C)c1=O [benquitrione]
Herbicidal efficacy (Solanum nigrum (SOLNI); SOLNI 21 DAT, 6 g a.i./ha): 85% | Herbicidal efficacy (Cyperus iria (CYPIR); CYPIR 10 DAT, 1.5 g a.i./ha): 40% | Herbicidal efficacy (Cyperus iria (CYPIR); CYPIR 21 DAT, 1.5 g a.i./ha): 30% | Herbicidal efficacy ([1]; ERIBO 10 DAT, 6 g a.i./ha): 85% | Herbicidal efficacy ([1]; ERIBO 21 DAT, 6 g a.i./ha): 85% | Herbicidal efficacy (Setaria viridis (SETVI); SETVI 10 DAT, 6 g a.i./ha): 88% | Herbicidal efficacy (Setaria viridis (SETVI); SETVI 21 DAT, 1.5 g a.i./ha): 50% | Herbicidal efficacy ([2]; ABUTH 10 DAT, 1.5 g a.i./ha): 20% | Herbicidal efficacy ([2]; ABUTH 10 DAT, 6 g a.i./ha): 40% | Herbicidal efficacy ([2]; ABUTH 21 DAT, 6 g a.i./ha): 10% | Herbicidal efficacy ([3]; POLCO 10 DAT, 6 g a.i./ha): 20% | Herbicidal efficacy [%] against SORHA 10 DAT ([4]; application rate 1.5 g a.i./ha): 10% | Herbicidal efficacy [%] against SORHA 21 DAT ([4]; application rate 1.5 g a.i./ha): 0% | Herbicidal efficacy [%] against SORHA 10 DAT ([4]; application rate 6 g a.i./ha): 20% | Herbicidal efficacy [%] against SORHA 21 DAT ([4]; application rate 6 g a.i./ha): 10% | Herbicidal efficacy ([5]; BRAPP 10 DAT, 1.5 g a.i./ha): 20% | Herbicidal efficacy ([5]; BRAPP 10 DAT, 6 g a.i./ha): 80% | Herbicidal efficacy ([5]; BRAPP 21 DAT, 1.5 g a.i./ha): 10% | Herbicidal efficacy ([5]; BRAPP 21 DAT, 6 g a.i./ha): 20% | Herbicidal efficacy ([6]; PHBPU 10 DAT, 6 g a.i./ha): 40% | Herbicidal efficacy ([6]; PHBPU 21 DAT, 6 g a.i./ha): 20% | Herbicidal efficacy [%] against XANST 21 DAT ([7]; application rate 6 g a.i./ha, 21 DAT): 50%

C=C[C@]1(C(=O)N[C@H]2C=C[C@@H](C(=O)OC)C2)CC(c2cc(F)cc(F)c2)=NO1 [P2, methyl (1S,4R)-4-[[(5S)-3-(3,5-difluorophenyl)-5-vinyl-4H-isoxazole-5-carbonyl]amino]cyclopent-2-ene-1-carboxylate]
Herbicidal efficacy (Solanum nigrum (SOLNI); SOLNI 10 DAT, 0.3 g a.i./ha): 60% | Herbicidal efficacy (Solanum nigrum (SOLNI); SOLNI 21 DAT, 1.2 g a.i./ha): 40% | Herbicidal efficacy (Cyperus iria (CYPIR); CYPIR 10 DAT, 0.3 g a.i./ha): 50% | Herbicidal efficacy (Cyperus iria (CYPIR); CYPIR 10 DAT, 1.2 g a.i./ha): 88% | Herbicidal efficacy (Cyperus iria (CYPIR); CYPIR 21 DAT, 0.3 g a.i./ha): 40% | Herbicidal efficacy (Cyperus iria (CYPIR); CYPIR 21 DAT, 1.2 g a.i./ha): 88% | Herbicidal efficacy ([1]; ERIBO 10 DAT, 0.3 g a.i./ha): 0% | Herbicidal efficacy ([1]; ERIBO 21 DAT, 0.3 g a.i./ha): 0% | Herbicidal efficacy ([2]; ABUTH 10 DAT, 0.3 g a.i./ha): 20% | Herbicidal efficacy ([2]; ABUTH 10 DAT, 1.2 g a.i./ha): 30% | Herbicidal efficacy ([2]; ABUTH 21 DAT, 0.3 g a.i./ha): 10% | Herbicidal efficacy ([2]; ABUTH 21 DAT, 1.2 g a.i./ha): 20% | Herbicidal efficacy ([3]; POLCO 21 DAT, 0.3 g a.i./ha): 90% | Herbicidal efficacy [%] against XANST 21 DAT ([8]; application rate 0.3 g a.i./ha): 10% | Herbicidal efficacy [%] against SORHA 10 DAT ([4]; application rate 0.3 g a.i./ha): 80% | Herbicidal efficacy ([5]; BRAPP 21 DAT, 0.3 g a.i./ha): 85% | Herbicidal efficacy (Emex australis (EMEAU); EMEAU 21 DAT, 0.3 g a.i./ha): 88% | Herbicidal efficacy (Emex australis (EMEAU); EMEAU 21 DAT, 1.2 g a.i./ha): 88% | Herbicidal efficacy [%] against XANST 10 DAT [7]: 20%

C=C[C@]1(C(=O)N[C@H]2CO[C@@H](C(=O)OC)C2)CC(c2cc(F)cc(F)c2)=NO1 (relative stereo) [P1, methyl (2R*,4R*)-4-[[(5S)-3-(3,5-difluorophenyl)-5-vinyl-4H-isoxazole-5-carbonyl]amino]tetrahydrofuran-2-carboxylate]
Herbicidal efficacy (Solanum nigrum (SOLNI); SOLNI 10 DAT, 0.3 g a.i./ha): 40% | Herbicidal efficacy ([2]; ABUTH 10 DAT, 0.3 g a.i./ha): 70% | Herbicidal efficacy ([2]; ABUTH 21 DAT, 1.2 g a.i./ha): 85% | Herbicidal efficacy [%] against XANST 21 DAT ([8]; application rate 0.3 g a.i./ha): 40% | Herbicidal efficacy [%] against SORHA 21 DAT ([4]; application rate 0.3 g a.i./ha): 90% | Herbicidal efficacy [%] against SORHA 21 DAT ([4]; application rate 1.2 g a.i./ha): 90% | Herbicidal efficacy (Emex australis (EMEAU); EMEAU 10 DAT, 1.2 g a.i./ha): 70% | Herbicidal efficacy (Emex australis (EMEAU); EMEAU 21 DAT, 1.2 g a.i./ha): 80% | Herbicidal efficacy [%] against XANST 10 DAT [7]: 60%

COC(=O)[C@@H](C)O/N=C/c1cc(-n2c(=O)cc(C(F)(F)F)n(C)c2=O)c(F)cc1Cl [flufenoximacil]
Herbicidal efficacy [%] against ERIBO 21 DAT [1, 10]: 40% | Herbicidal efficacy [%] against ERIBO 21 DAT ([1]; application rate 0.1 g a.i./ha): 60% | Herbicidal efficacy [%] against POLCO 21 DAT [3, 11]: 60% | Herbicidal efficacy [%] against XANST 21 DAT [8, 12]: 10% | Herbicidal efficacy [%] against SORHA 10 DAT [4, 12]: 20% | Herbicidal efficacy [%] against EPHHL 21 DAT [9, 12]: 40% | Herbicidal efficacy [%] against EPHHL 21 DAT [9, 10]: 88% | Herbicidal efficacy [%] against EMEAU 10 DAT (Emex australis (EMEAU); application rate 0.00625 g a.i./ha, 10 DAT): 50% | Herbicidal efficacy [%] against EMEAU 21 DAT (Emex australis (EMEAU); application rate 0.00625 g a.i./ha, 21 DAT): 10% | Herbicidal efficacy [%] against PHBPU 21 DAT [6, 11]: 75%

CCn1ncc(C(=O)c2ccc(S(C)(=O)=O)c(OCCOC)c2C)c1OC(C)OC(=O)OC (stereo not shown) [tolpyralate]
Herbicidal efficacy [%] against SOLNI 21 DAT (Solanum nigrum (SOLNI); application rate 0.5 g a.i./ha, 21 DAT): 85% | Herbicidal efficacy (Cyperus iria (CYPIR); CYPIR 10 DAT, 0.5 g a.i./ha): 40% | Herbicidal efficacy (Cyperus iria (CYPIR); CYPIR 21 DAT, 0.5 g a.i./ha): 20% | Herbicidal efficacy (Cyperus iria (CYPIR); CYPIR 21 DAT, 2 g a.i./ha): 30% | Herbicidal efficacy ([1]; ERIBO 10 DAT, 2 g a.i./ha): 90% | Herbicidal efficacy ([1]; ERIBO 21 DAT, 2 g a.i./ha): 85% | Herbicidal efficacy (Setaria viridis (SETVI); SETVI 21 DAT, 0.5 g a.i./ha): 60% | Herbicidal efficacy (Setaria viridis (SETVI); SETVI 21 DAT, 2 g a.i./ha): 88% | Herbicidal efficacy ([3]; POLCO 10 DAT, 0.5 g a.i./ha): 30% | Herbicidal efficacy ([3]; POLCO 21 DAT, 0.5 g a.i./ha): 20% | Herbicidal efficacy [%] against XANST 21 DAT ([8]; application rate 0.5 g a.i./ha): 30% | Herbicidal efficacy [%] against XANST 21 DAT ([8]; application rate 2 g a.i./ha): 70% | Herbicidal efficacy [%] against SORHA 10 DAT ([4]; application rate 2 g a.i./ha): 85% | Herbicidal efficacy [%] against SORHA 21 DAT ([4]; application rate 2 g a.i./ha): 50% | Herbicidal efficacy ([5]; BRAPP 10 DAT, 0.5 g a.i./ha): 30% | Herbicidal efficacy ([5]; BRAPP 21 DAT, 0.5 g a.i./ha): 20% | Herbicidal efficacy ([5]; BRAPP 21 DAT, 2 g a.i./ha): 80% | Herbicidal efficacy ([6]; PHBPU 10 DAT, 0.5 g a.i./ha): 10% | Herbicidal efficacy ([6]; PHBPU 21 DAT, 0.5 g a.i./ha): 10%
